In patent publication US7335817B2, “Canola line 45H25” (Pioneer Hi-Bred International, Inc., priority 2005, dated 2008):
Entries after “also recorded” stand apart in the source; their conditions may differ.

System: Canola Variety 45H25
Assay: Herbicide resistance of canola variety 45H25 at standard recommended application rates
Assay type: in vivo, Brassica napus
Settings: for Herbicide resistance (Description): response of variety 45H25 to the herbicide, in words; for Herbicide resistance rating (Mean): scale 0 = not tested, 1 = resistant, variety 45H25
Description: When preparing the detailed phenotypic information that follows, plants of the new 45H25 variety were observed while growing using conventional agronomic practices. For comparative purposes canola plants of four publicly available canola lines were similarly grown in a three-replication experiment. Based on observations recorded on various morphological traits for the variety 45H25 and comparative check cultivars, variety 45H25 can be described as follow: […]

Structure (SMILES) | Herbicide resistance (Description) | Herbicide resistance rating (Mean) (5 = tolerant, 9 = susceptible) | Herbicide resistance (Description) (listed as glyphosate) | Herbicide resistance rating (Mean) (2 = tolerant, 3 = susceptible)
CP(=O)(O)CCC(N)C(=O)O (centres unmarked) [Glufosinate] | susceptible | 9.00 |  | 
O=C(O)CNCP(=O)(O)O [Glyphosate] | resistant |  | resistance; also recorded: resistant | 1.00
